US20250228239A1, “MOLECULES HAVING PESTICIDAL UTILITY, AND INTERMEDIATES, COMPOSITIONS, AND PROCESSES, RELATED THERETO” (priority 2024, published 2025)

Key:
[1] = test system: Cabbage Looper (Trichoplusia ni, TRIPNI); test: Bioassays on Cabbage Looper (CL), 128-well diet tray assay; assay type: in vivo; conditions: Trichoplusia ni; Cabbage Looper; rating class; read-out: CL
Method in brief: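 Percent mortality, averaged across eight replicate wells, after second-instar larvae (1–5 per well) fed for five to seven days on diet dosed at 50 μg/cm^2. Compound was applied in acetone-water 90:10 and dried; trays kept vented at 25° C under 14:10 photoperiod.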

[2] = test system: Beet Armyworm (Spodoptera exigua, LAPHEG); test: Bioassays on Beet Armyworm (BAW), 128-well diet tray assay; assay type: in vivo; conditions: Spodoptera exigua; Beet Armyworm; rating class; read-out: BAW
Method in brief: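 Eight diet wells per compound were treated at 50 μg/cm^2 (acetone-water 90:10), dried, then infested with 1–5 second-instar larvae each. After five to seven days at 25 °C under 14:10 photoperiod, mortality was scored and averaged across wells.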

SMILES	pest or weed control at 50 µg/cm2 [1] [%]	pest or weed control at 50 µg/cm2 [2] [%]
O=C(Nc1cc(NC(=O)C(F)(F)C(F)F)c(F)cc1F)c1cc(NC(=O)[C@H]2[C@H](c3cc(Cl)c(Cl)c(Cl)c3)C2(Cl)Cl)ccc1Cl [F1568, 2-Chloro-5-((1R,3R)-2,2-dichloro-3-(3,4,5-trichlorophenyl)cyclopropane-1-carboxamido)-N-(2,4-difluoro-5-(2,2,3,3-tetrafluoropropanamido)phenyl)benzamide]	50 to 100	50 to 100
O=C(Nc1cc(NC(=O)C(F)(F)C(F)F)c(F)cc1F)c1cc(NC(=O)[C@H]2[C@H](c3ccc(F)c(C(F)(F)F)c3)C2(Cl)Cl)ccc1Cl [F1569, 2-Chloro-5-((1R,3R)-2,2-dichloro-3-(4-fluoro-3-(trifluoromethyl)phenyl)cyclopropane-1-carboxamido)-N-(2,4-difluoro-5-(2,2,3,3-tetrafluoropropanamido)phenyl)benzamide]	50 to 100	50 to 100
CC(=O)Nc1c(F)ccc(NC(=O)c2cc(NC(=O)[C@H]3[C@H](c4ccc(F)c(C(F)(F)F)c4)C3(Cl)Cl)cc(F)c2F)c1F [F1570, N-(3-Acetamido-2,4-difluorophenyl)-5-((1R,3R)-2,2-dichloro-3-(4-fluoro-3-(trifluoromethyl)phenyl)cyclopropane-1-carboxamido)-2,3-difluorobenzamide]	50 to 100	50 to 100
O=C(Nc1ccc(F)c(NC(=O)C(F)F)c1F)c1cc(NC(=O)[C@H]2[C@H](c3ccc(F)c(C(F)(F)F)c3)C2(Cl)Cl)cc(F)c1F [F1571, 5-((1R,3R)-2,2-Dichloro-3-(4-fluoro-3-(trifluoromethyl)phenyl)cyclopropane-1-carboxamido)-N-(3-(2,2-difluoroacetamido)-2,4-difluorophenyl)-2,3-difluorobenzamide]	50 to 100	50 to 100
O=C(Nc1ccc(F)c(NC(=O)C(F)(F)F)c1F)c1cc(NC(=O)[C@H]2[C@H](c3ccc(F)c(C(F)(F)F)c3)C2(Cl)Cl)cc(F)c1F [F1572, 5-((1R,3R)-2,2-Dichloro-3-(4-fluoro-3-(trifluoromethyl)phenyl)cyclopropane-1-carboxamido)-N-(2,4-difluoro-3-(2,2,2-trifluoroacetamido)phenyl)-2,3-difluorobenzamide]	50 to 100	50 to 100
O=C(Nc1c(F)ccc(NC(=O)C(F)F)c1F)c1cc(NC(=O)[C@H]2[C@H](c3ccc(F)c(C(F)(F)F)c3)C2(Cl)Cl)cc(F)c1F [F1573, 5-((1R,3R)-2,2-Dichloro-3-(4-fluoro-3-(trifluoromethyl)phenyl)cyclopropane-1-carboxamido)-N-(3-(2,2-difluoroacetamido)-2,6-difluorophenyl)-2,3-difluorobenzamide]	50 to 100	50 to 100
O=C(Nc1c(F)ccc(NC(=O)C(F)(F)F)c1F)c1cc(NC(=O)[C@H]2[C@H](c3ccc(F)c(C(F)(F)F)c3)C2(Cl)Cl)cc(F)c1F [F1574, 5-((1R,3R)-2,2-Dichloro-3-(4-fluoro-3-(trifluoromethyl)phenyl)cyclopropane-1-carboxamido)-N-(2,6-difluoro-3-(2,2,2-trifluoroacetamido)phenyl)-2,3-difluorobenzamide]	50 to 100	50 to 100
CC(=O)Nc1ccc(F)c(NC(=O)c2cc(NC(=O)[C@H]3[C@H](c4ccc(Cl)c(Cl)c4)C3(Cl)Cl)cc(F)c2F)c1F [F1575, N-(3-Acetamido-2,6-difluorophenyl)-5-((1R,3R)-2,2-dichloro-3-(3,4-dichlorophenyl)cyclopropane-1-carboxamido)-2,3-difluorobenzamide]	50 to 100	50 to 100
